Reference: patent publication US4880835A, “Oral liquid pharmaceutical compositions of sulindac” (Formulations Development Labs, Inc., priority 1988, dated 1989)
One block for each compound: values may come before it.

Experiments:
[1] = background statement; cited from earlier work
[2] = pH measurement of oral solutions diluted with water 1:10 and of sodium sulindac solution; format: physicochemical
Text: The results are shown below.

[3] = Stability, hygroscopicity and crystallization of salts and compositions; format: physicochemical

SMILES: CC1=C(CC(=O)O)c2cc(F)ccc2/C1=C\c1ccc([S+](C)[O-])cc1 (stereo not drawn) [Sulindac]
absorption from the gastrointestinal tract [1]: erratically absorbed

pH of solutions, in words ([2]; compared with sodium sulindac solutions): acceptable for formulation
stability [3]: good stability
SMILES: CC1=C(CC(=O)O)c2cc(F)ccc2/C1=C\c1ccc([S+](C)[O-])cc1 (stereo not drawn) [calcium sulindac]

pH of aqueous solution ([2]; aqueous solution, 4%): 10.99
hygroscopicity [3]: strongly hygroscopic
crystallization ([3]; in our hands): difficult to crystallize
SMILES: CC1=C(CC(=O)O)c2cc(F)ccc2/C1=C\c1ccc([S+](C)[O-])cc1 (stereo not drawn) [sodium sulindac]
